The results in this text go back to patent US20240294495A1, “COMPOUNDS THAT MEDIATE PROTEIN DEGRADATION AND METHODS OF USE THEREOF” (Monte Rosa Therapeutics, Inc., priority 2021, published 2024).

A value given as a limit tells only on which side of the number the result lay.

In general, IC50 refers to the concentration needed to halve the response being measured. In general, DC50 refers to the midpoint of the concentration-degradation curve.

The target in one assay is CRBN-DDB1 (Homo sapiens, UniProt Q96SW2). Nature of the assay: Compound binding to CRBN by HTRF assay. The following applies: CRBN-DDB1 2.5 nM, Cy5-Thalidomide 100 nM probe, 30 min incubation; read-out: HTRF Class (Cereblon binding, HTRF IC50). On the procedure:
Compound activity was monitored in a Homogenous Time-Resolved Fluorescence (HTRF) assay using 1-[5-({2-[2-(2-{[2-(2,6-dioxopiperidin-3-yl)-1,3-dioxo-2,3-dihydro-1H-isoindol-4-yl]oxy}acetamido)ethoxy]ethyl}carbamoyl)pentyl]-3,3-dimethyl-2-[(1E,3E)-5-[(2E)-1,3,3-trimethyl-5-sulfo-2,3-dihydro-1H-indol-2-ylidene]penta-1,3-dien-1-yl]-3H-indol-1-ium-5-sulfonate as a fluorescent probe. Biochemical assays were conducted in Greiner white 384 well HiBase plates (Cat. No 784075-25) in 10 μL total volume. A one pot detection solution of CRBN-DDB1 (2.5 nM), Anti-His Terbium Cryptate Gold (1×, PerkinElmer Cat. #: 61HI2TLB), and Cy5-Thalidomide (100 nM, Tenova Cat.: T52461) was prepared in 20 mM HEPES, 20 mM NaCl, 0.2 mM TCEP, 0.2 mM EDTA, and 0.005% Tween20 was dispensed to each assay plate. Compounds were stored in dry, ambient temperatures at 10 mM. A 10-point, 1:3 dilution series was prepared from 10 mM stock concentrations in Echo-compatible LDV plates. 10 nL of each compound dilution series was dispensed into assays wells using an Echo 650 (Labcyte inc. USA). 10 nL of 10 mM Lenalidomide was transferred into the active-control wells for the assay and 10 nL of DMSO was transferred into the neutral-control wells. The assay was then allowed to incubate for 30 min at ambient temperature after transferring compound. Plate measurements were taken on a Pherastar FSX (BMG Labtech, Germany) using the HTRF Red filter (Ex. 337 nm, em1: 620 nm, em2: 665 nm) (Flashes: 50, Integration time: 60-400 us, Z-height: 10 mm, Ratio-multiplier: 10,000). The HTRF signal was then subsequently normalized to the neutral and active controls. Analysis and IC50 values were derived using KNIME analytics (KNIME Zurich) transformation and fitting within Collaborative Drug Discovery (Collaborative Drug Discovery USA). Ki was derived from the geometric mean of the IC50 values using the Cheng-Prustoff transformation.
(§1) In Table 2, each compound is assigned a class (HTRF class) indicating the ability for Cereblon binding by means of their HTRF IC50 values according to Example 3: A, B or C. According to the code, A represents an IC50 value of <100 nM, B represents an IC50 value>100 nM and <1000 nM, C represents an IC50 value>1000 nM. IF Class assigns each compound a code indicating the ability for GSPT1 degradation: A, B or C. According to the code, A represents a DC50 value of <30 nM, B represents a DC50 value>30 nM and <300 nM and C represents a DC50 value of >300 nM.
(TR-FRET usually uses a lanthanide donor and a delayed reading to cut background.)

In the next assay the target is T1, GSPT1 (Homo sapiens, UniProt P15170+Q96SW2).
T1 construct: CAL-51 cells were purchased from DSMZ (cat. Number ACC302); endogenous in cells; host or cells: CAL-51 (DSMZ ACC302)
T1 sequence (P15170 whole entry): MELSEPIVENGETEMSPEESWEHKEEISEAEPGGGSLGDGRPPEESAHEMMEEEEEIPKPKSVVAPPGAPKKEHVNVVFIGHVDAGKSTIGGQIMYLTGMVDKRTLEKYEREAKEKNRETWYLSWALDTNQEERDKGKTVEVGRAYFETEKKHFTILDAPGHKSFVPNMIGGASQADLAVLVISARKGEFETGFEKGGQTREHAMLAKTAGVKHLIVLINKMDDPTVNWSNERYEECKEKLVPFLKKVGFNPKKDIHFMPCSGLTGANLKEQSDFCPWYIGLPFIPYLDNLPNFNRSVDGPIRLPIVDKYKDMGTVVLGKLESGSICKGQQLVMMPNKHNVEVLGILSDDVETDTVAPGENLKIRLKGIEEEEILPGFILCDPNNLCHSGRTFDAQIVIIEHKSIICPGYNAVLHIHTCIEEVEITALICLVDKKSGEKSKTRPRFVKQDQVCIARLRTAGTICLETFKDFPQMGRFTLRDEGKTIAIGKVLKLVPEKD
T1 sequence (Q96SW2 whole entry): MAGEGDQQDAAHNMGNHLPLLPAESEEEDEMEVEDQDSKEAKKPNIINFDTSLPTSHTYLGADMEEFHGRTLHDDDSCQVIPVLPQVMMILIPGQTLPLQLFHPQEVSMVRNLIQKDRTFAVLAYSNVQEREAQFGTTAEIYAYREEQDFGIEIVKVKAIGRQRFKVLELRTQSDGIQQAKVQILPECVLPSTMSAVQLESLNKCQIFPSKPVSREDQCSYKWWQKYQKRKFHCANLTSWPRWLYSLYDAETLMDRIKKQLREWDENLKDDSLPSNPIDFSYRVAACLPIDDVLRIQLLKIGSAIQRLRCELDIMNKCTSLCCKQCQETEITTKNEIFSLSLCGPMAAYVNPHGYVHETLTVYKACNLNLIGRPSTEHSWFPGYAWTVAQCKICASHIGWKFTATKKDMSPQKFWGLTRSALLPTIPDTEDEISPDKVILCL
T1 sequence (Q16531 2-1140 partner limits assumed): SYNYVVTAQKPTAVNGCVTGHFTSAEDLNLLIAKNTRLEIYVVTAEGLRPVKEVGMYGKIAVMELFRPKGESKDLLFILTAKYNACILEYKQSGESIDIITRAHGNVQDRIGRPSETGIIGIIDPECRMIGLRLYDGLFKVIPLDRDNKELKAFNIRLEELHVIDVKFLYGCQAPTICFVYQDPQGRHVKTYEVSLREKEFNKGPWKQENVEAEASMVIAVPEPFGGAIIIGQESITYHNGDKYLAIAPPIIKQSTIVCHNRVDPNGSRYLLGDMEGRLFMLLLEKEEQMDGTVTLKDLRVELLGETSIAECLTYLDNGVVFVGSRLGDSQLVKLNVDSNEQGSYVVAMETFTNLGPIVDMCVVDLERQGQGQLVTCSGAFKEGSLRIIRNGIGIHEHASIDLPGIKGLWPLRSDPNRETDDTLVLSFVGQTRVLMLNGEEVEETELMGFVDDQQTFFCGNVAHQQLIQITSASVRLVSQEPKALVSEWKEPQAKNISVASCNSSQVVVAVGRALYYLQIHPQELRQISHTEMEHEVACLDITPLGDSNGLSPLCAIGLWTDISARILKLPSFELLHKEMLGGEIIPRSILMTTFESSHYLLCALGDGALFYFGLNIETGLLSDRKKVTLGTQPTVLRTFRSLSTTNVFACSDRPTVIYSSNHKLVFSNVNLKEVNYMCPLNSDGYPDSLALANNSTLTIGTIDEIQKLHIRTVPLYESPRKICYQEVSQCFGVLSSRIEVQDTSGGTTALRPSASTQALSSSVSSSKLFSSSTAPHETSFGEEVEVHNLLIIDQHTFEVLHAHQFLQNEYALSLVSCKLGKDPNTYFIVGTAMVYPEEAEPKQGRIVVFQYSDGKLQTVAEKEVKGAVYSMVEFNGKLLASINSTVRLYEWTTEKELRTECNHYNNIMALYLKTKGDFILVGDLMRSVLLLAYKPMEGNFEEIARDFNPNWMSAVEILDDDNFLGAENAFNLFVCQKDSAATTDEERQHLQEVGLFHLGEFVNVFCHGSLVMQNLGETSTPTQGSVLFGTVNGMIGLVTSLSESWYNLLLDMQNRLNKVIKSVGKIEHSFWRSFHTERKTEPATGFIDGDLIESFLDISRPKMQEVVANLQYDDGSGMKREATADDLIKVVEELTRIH
Nature of the assay: Immunofluorescence assay for GSPT1 degradation in CAL-51 cells. It is filed as cell-based. The following applies: 6 h treatment, read-out: IF Class (GSPT1 degradation, DC50). The method, then:
The representative compounds were tested in an immunofluorescence assay for their activity to degrade GSPT1. CAL-51 cells were purchased from DSMZ (cat. Number ACC302), sub-cultured in 90% Dulbecco's MEM (4.5 g/L glucose, Gibco 11965)+10% heat inactivated FBS (BioConcept, 2-01F136I) and incubated at 37° C., 5% CO2. For the assay imaging microtiter plate Cell Carrier 96 Ultra (Perkin Elmer 6055302) were pre-coated with Fibronectin (Sigma F085, 30 μl at 0.2 μg/mL) in PBS (100 μL, Gibco 14190) for 45 min at room temperature, rinsed with PBS and CAL-51 cells (30K cells/well) were plated and let to adhere overnight. Cells were treated with compounds typically using a serial dilution ranging from 30 μM to 0.1 nM for 6 h. Compounds were stored at 10 mM DMSO stocks. Vehicle (DMSO), positive (CC-885, 10 μM) and rescue controls (positive control plus 0.2 μM bortezomib) were also included at this stage. Cells were subsequently rinsed with PBS and fixed in 10% Formalin solution (50 μl, Sigma HT5011)) for 20 min at room temperature. Following three consecutive PBS washes (100 μL), cells were permeabilized in 0.1% Triton X-100 in PBS (Sigma 93443, 50 μl) for 15 min at room temperature. Following three further PBS washes, 50 μl blocking buffer (1% BSA, Sigma A4503, in PBS) was added for 45 min for signal-to noise reduction. Primary antibody (human GSPT1, Sigma HPA052488) was diluted in blocking buffer (dil.1/300, 35 μL/well) and incubated with the cells overnight at 4° C. After three PBS washes, Alexa-fluor 488 coupled secondary antibodies (Invitrogen, A32731, dil.1/1000), Alexa-fluor 647-Phalloidin (Invitrogen, A22287, dil.1/200) and DAPI (Thermo, #62248, dil.1/1000) were diluted in blocking buffer and incubated with the samples for 2 h at room temperature. After three final PBS washes, samples were conserved in 100 μL PBS in the dark, until measurement. Image acquisition was performed on the Operetta High-Content Imager (Perkin-Elmer). Fluorescence intensity of […] (GSPT1), Alexa-Fluor 647 (Actin) and DAPI (Nucleus) were measured. For the determination of GSPT1 DC50 values, a custom algorithm implemented in the PerkinElmer image analysis software Harmony-Acapella® was developed. After user-defined setting of adjustment parameters, the analysis was run identically without human intervention for all image fields. DAPI staining of the nuclei was used to determine the location of cells using standard nuclei detection modules. Segmentation artifacts were removed by threshold-based filters for area, roundness and intensity. The outline of the cells was determined analogously from the sum of the normalized, smoothed DAPI and Actin channel, starting from each nucleus. The Alexa-Fluor 488 (GSPT1) signal intensity in each cell was finally measured, in order to obtain a Mean intensity per cell. GSPT1 degradation (DC50) was calculated after normalization to controls and data import in CDD vault Database, using non-linear regression.
as §1

Chain of CRBN-DDB1 (Q96SW2 whole entry): as the sequence (Q96SW2 whole entry) above
Chain of CRBN-DDB1 (Q16531 whole entry partner): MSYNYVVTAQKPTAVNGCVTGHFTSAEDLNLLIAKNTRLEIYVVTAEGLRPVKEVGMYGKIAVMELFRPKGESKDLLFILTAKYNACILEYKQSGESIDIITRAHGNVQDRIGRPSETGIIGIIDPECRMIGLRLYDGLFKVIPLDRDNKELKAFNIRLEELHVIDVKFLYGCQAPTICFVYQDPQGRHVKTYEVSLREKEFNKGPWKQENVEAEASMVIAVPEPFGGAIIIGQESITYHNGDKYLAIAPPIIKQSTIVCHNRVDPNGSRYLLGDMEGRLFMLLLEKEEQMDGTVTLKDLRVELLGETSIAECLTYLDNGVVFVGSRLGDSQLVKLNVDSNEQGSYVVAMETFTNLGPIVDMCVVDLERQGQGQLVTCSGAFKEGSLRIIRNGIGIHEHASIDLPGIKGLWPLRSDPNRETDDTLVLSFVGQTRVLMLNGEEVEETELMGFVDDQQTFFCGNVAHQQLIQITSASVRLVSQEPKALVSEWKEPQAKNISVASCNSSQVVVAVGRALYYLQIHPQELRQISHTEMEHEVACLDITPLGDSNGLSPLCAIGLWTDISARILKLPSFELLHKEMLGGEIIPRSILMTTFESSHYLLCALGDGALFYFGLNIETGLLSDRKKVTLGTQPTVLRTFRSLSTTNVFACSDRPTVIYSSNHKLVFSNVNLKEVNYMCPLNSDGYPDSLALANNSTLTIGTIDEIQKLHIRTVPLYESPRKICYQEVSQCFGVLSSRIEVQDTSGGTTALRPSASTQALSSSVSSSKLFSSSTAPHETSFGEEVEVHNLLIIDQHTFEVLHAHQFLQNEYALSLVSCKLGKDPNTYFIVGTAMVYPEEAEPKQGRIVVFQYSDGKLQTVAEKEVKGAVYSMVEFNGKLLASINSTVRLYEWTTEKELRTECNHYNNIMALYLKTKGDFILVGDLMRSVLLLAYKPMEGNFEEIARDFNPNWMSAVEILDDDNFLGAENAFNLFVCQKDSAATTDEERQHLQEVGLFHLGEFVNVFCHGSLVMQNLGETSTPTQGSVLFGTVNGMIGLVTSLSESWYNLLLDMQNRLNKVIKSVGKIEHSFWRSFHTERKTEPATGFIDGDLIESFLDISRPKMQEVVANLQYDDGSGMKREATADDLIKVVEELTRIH

Turning to `O=C1CCC(c2c(F)cc(N3CC(CC(=O)Nc4cc(OC(F)(F)F)ccc4F)C3)cc2F)C(=O)N1` (stereo not drawn) [Compound 9, 2-(1-(4-(2,6-dioxopiperidin-3-yl)-3,5-difluorophenyl)azetidin-3-yl)-N-(2-fluoro-5-(trifluoromethoxy)phenyl)acetamide], at CRBN-DDB1, the IC50 was 100 to 1000 nM. The DC50 at GSPT1 was < 30 nM.

In the case of `O=C1CCC(c2c(F)cc(N3CC(NC(=O)Cc4ncc(Cl)cc4F)C3)cc2F)C(=O)N1` (stereo not drawn) [Compound 15, 2-(5-chloro-3-fluoropyridin-2-yl)-N-(1-(4-(2,6-dioxopiperidin-3-yl)-3,5-difluorophenyl)azetidin-3-yl)acetamide], the IC50 at CRBN-DDB1 was 100 to 1000 nM. Moreover, the DC50 on GSPT1 is > 300 nM.

On to `N#Cc1ccc(CC(=O)NC2CN(c3cc(F)c(C4CCC(=O)NC4=O)c(F)c3)C2)c(F)c1` (stereo not drawn) [Compound 47, 2-(4-cyano-2-fluorophenyl)-N-(1-(4-(2,6-dioxopiperidin-3-yl)-3,5-difluorophenyl)azetidin-3-yl)acetamide], for which the 50% inhibitory concentration (IC50) on CRBN-DDB1 fell in the range of 100 to 1000 nM. For the same compound, the 50% degradation concentration (DC50) at GSPT1 was > 300 nM.

As for `CC(C)(C)C12CC(C(=O)NC3CN(c4cc(F)c(C5CCC(=O)NC5=O)c(F)c4)C3)(C1)C2` (stereo not drawn) [Compound 23, 3-(tert-butyl)-N-(1-(4-(2,6-dioxopiperidin-3-yl)-3,5-difluorophenyl)azetidin-3-yl) bicyclo[1.1.1]pentane-1-carboxamide], the IC50 on CRBN-DDB1 was 100 to 1000 nM. Besides, at GSPT1, the half-maximal degradation concentration (DC50) was > 300 nM.

Regarding `Cc1cc(C)cc(CC(=O)NC2CN(c3cc(F)c(C4CCC(=O)NC4=O)c(F)c3)C2)c1` (stereo not drawn) [Compound 29, 2-(3,5-dimethylphenyl)-N-(1-(4-(2,6-dioxopiperidin-3-yl)-3,5-difluorophenyl)azetidin-3-yl)acetamide], on CRBN-DDB1, the 50% inhibitory concentration (IC50) was 100 to 1000 nM. For the same compound, the 50% degradation concentration (DC50) on GSPT1 is < 30 nM.

Take `Cc1nc(CC(=O)NC2CN(c3cc(F)c(C4CCC(=O)NC4=O)c(F)c3)C2)ccc1Cl` (stereo not drawn) [Compound 25, 2-(5-chloro-6-methylpyridin-2-yl)-N-(1-(4-(2,6-dioxopiperidin-3-yl)-3,5-difluorophenyl)azetidin-3-yl)acetamide]: the IC50 at CRBN-DDB1 lay within 100 to 1000 nM. Also, the 50% degradation concentration (DC50) at GSPT1 is > 300 nM.

For the compound `Cc1cc(NC(=O)CC2CN(c3cc(F)c(C4CCC(=O)NC4=O)c(F)c3)C2)ccc1Cl` (stereo not drawn) [Compound 3, N-(4-chloro-3-methylphenyl)-2-(1-(4-(2,6-dioxopiperidin-3-yl)-3,5-difluorophenyl)azetidin-3-yl)acetamide], the IC50 at CRBN-DDB1 lay in the range of 100 to 1000 nM. Also, the half-maximal degradation concentration (DC50) at GSPT1 was < 30 nM.

As for `Cc1cc(CC(=O)NC2CN(c3cc(F)c(C4CCC(=O)NC4=O)c(F)c3)C2)ccc1F` (stereo not drawn) [Compound 30, N-(1-(4-(2,6-dioxopiperidin-3-yl)-3,5-difluorophenyl)azetidin-3-yl)-2-(4-fluoro-3-methylphenyl)acetamide], the IC50 at CRBN-DDB1 lay within 100 to 1000 nM. Besides, the DC50 on GSPT1 lay within 30 to 300 nM.

On to `O=C1CCC(c2c(F)cc(N3CC(NC(=O)Cc4cc(Cl)c(F)cc4F)C3)cc2F)C(=O)N1` (stereo not drawn) [Compound 4, 2-(5-chloro-2,4-difluorophenyl)-N-(1-(4-(2,6-dioxopiperidin-3-yl)-3,5-difluorophenyl)azetidin-3-yl)acetamide], for which, on CRBN-DDB1, the IC50 was 100 to 1000 nM. Besides, the half-maximal degradation concentration (DC50) at GSPT1 was < 30 nM.

On to `COc1cc(Cl)ccc1CC(=O)NC1CN(c2cc(F)c(C3CCC(=O)NC3=O)c(F)c2)C1` (stereo not drawn) [Compound 27, 2-(4-chloro-2-methoxyphenyl)-N-(1-(4-(2,6-dioxopiperidin-3-yl)-3,5-difluorophenyl)azetidin-3-yl)acetamide], for which the IC50 at CRBN-DDB1 lay within 100 to 1000 nM. Further, the DC50 on GSPT1 was in the range of 30 to 300 nM.

Regarding `O=C1CCC(c2c(F)cc(N3CC(NC(=O)Cc4cc(Cl)ccc4F)C3)cc2F)C(=O)N1` (stereo not drawn) [Compound 12, 2-(5-chloro-2-fluorophenyl)-N-(1-(4-(2,6-dioxopiperidin-3-yl)-3,5-difluorophenyl)azetidin-3-yl)acetamide], on CRBN-DDB1, the 50% inhibitory concentration (IC50) is < 100 nM. The half-maximal degradation concentration (DC50) at GSPT1 lay in the range of 30 to 300 nM.

Turning to `O=C1CCC(c2c(F)cc(N3CC(NC(=O)Cc4ccc(F)c(Cl)c4)C3)cc2F)C(=O)N1` (stereo not drawn) [Compound 13, 2-(3-chloro-4-fluorophenyl)-N-(1-(4-(2,6-dioxopiperidin-3-yl)-3,5-difluorophenyl)azetidin-3-yl)acetamide], the IC50 on CRBN-DDB1 was in the range of 100 to 1000 nM. Also, on GSPT1, the DC50 is > 300 nM.

Consider `Cc1cc(F)cc(CC(=O)NC2CN(c3cc(F)c(C4CCC(=O)NC4=O)c(F)c3)C2)c1` (stereo not drawn) [Compound 7, N-(1-(4-(2,6-dioxopiperidin-3-yl)-3,5-difluorophenyl)azetidin-3-yl)-2-(3-fluoro-5-methylphenyl)acetamide], for which the IC50 at CRBN-DDB1 was 100 to 1000 nM. Further, the DC50 at GSPT1 is > 300 nM.

Turning to `Cc1c(Cl)cc(CC(=O)NC2CN(c3cc(F)c(C4CCC(=O)NC4=O)c(F)c3)C2)cc1CN1CCOCC1` (stereo not drawn) [Compound 18, 2-(3-chloro-4-methyl-5-(morpholinomethyl)phenyl)-N-(1-(4-(2,6-dioxopiperidin-3-yl)-3,5-difluorophenyl)azetidin-3-yl)acetamide], at CRBN-DDB1, the IC50 is 100 to 1000 nM. Besides, the DC50 at GSPT1 is < 30 nM.

As to `O=C1CCC(c2c(F)cc(N3CC(NC(=O)Cc4ccc(Cl)cc4)C3)cc2F)C(=O)N1` (stereo not drawn) [Compound 36, 2-(4-chlorophenyl)-N-(1-(4-(2,6-dioxopiperidin-3-yl)-3,5-difluorophenyl)azetidin-3-yl)acetamide], on CRBN-DDB1, the half-maximal inhibitory concentration (IC50) fell in the range of 100 to 1000 nM. In addition, the half-maximal degradation concentration (DC50) at GSPT1 was > 300 nM.
